Measurements reported in ChEMBL document CHEMBL3769401, “The first potent diphenyl phosphonate KLK4 inhibitors with unexpected binding kinetics” (Medchemcomm, 2015).
The source made the active and inactive calls. The calls are words filed in the database; no cut-off is given here.

How the values were obtained:
Coagulation factor X = Coagulation factor X (Homo sapiens, UniProt P00742); assay: Inhibition of factor 10a (unknown origin) using Biophen CS-11(32) as substrate
Kallikrein-4 [1] = target: T1, Kallikrein-4 (Homo sapiens, UniProt Q9Y5K2); assay: Inhibition of human recombinant KLK4 expressed in Escherichia coli using Bachem I-1120 as substrate preincubated for 15 mins followed by substrate addition by microplate reader analysis
T1 sequence (Q9Y5K2 whole entry): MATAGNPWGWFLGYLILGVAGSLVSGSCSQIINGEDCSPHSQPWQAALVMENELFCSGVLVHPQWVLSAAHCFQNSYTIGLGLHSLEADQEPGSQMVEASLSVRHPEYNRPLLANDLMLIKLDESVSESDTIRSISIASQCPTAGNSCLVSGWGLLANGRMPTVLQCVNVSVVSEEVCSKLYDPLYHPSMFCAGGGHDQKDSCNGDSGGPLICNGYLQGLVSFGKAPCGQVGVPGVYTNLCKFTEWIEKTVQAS

Kallikrein-2 = target: T2, Kallikrein-2 (Homo sapiens, UniProt P20151); assay: Inhibition of human recombinant KLK2 expressed in Escherichia coli using Bachem I-1295 as substrate preincubated for 15 mins followed by substrate addition by microplate reader analysis
T2 sequence (P20151 whole entry): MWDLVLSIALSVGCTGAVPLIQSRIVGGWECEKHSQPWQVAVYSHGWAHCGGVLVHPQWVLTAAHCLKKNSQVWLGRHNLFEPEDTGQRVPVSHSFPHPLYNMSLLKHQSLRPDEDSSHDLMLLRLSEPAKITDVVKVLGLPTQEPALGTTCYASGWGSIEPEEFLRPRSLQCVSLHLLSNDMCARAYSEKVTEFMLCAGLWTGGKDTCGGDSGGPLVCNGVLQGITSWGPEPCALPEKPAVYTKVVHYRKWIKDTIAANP

Kallikrein-1 [2] = target: T3, Kallikrein-1 (Homo sapiens, UniProt P06870); assay: Inhibition of human recombinant KLK1 expressed in Escherichia coli using Bachem I-1295 as substrate preincubated for 15 mins followed by substrate addition by microplate reader analysis
Target sequence in this assay (P06870 whole entry): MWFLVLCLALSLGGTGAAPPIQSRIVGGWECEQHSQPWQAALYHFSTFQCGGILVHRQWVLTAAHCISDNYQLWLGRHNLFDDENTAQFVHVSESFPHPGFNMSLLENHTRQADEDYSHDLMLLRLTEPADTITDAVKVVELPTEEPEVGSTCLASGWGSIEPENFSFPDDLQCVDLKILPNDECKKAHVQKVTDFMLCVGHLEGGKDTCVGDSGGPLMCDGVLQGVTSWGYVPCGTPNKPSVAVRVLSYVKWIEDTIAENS

[3] = target: Tissue-type plasminogen activator (Homo sapiens, UniProt P00750); assay: Inhibition of recombinant tPA (unknown origin) using Biophen CS-05(88) as substrate
Tissue-type plasminogen activator, sequence (P00750 whole entry): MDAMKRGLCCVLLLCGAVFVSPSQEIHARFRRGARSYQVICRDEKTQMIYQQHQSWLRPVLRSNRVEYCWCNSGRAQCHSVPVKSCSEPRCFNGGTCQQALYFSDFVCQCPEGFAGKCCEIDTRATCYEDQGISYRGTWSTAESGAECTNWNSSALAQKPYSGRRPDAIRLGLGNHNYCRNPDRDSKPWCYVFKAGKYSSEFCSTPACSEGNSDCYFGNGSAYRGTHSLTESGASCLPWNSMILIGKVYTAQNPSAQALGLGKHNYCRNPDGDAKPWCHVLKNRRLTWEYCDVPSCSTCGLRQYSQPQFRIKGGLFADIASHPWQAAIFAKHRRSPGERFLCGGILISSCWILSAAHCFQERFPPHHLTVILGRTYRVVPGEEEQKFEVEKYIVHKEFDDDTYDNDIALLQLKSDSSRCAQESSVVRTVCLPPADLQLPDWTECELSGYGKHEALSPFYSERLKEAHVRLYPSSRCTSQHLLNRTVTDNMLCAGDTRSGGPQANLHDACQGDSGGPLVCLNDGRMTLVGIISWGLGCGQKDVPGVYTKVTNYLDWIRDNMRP

Kallikrein-8 = target: T4, Kallikrein-8 (Homo sapiens, UniProt O60259); assay: Inhibition of human recombinant KLK8 expressed in Escherichia coli using Bachem I-1120 as substrate preincubated for 15 mins followed by substrate addition by microplate reader analysis
T4 sequence (O60259 whole entry): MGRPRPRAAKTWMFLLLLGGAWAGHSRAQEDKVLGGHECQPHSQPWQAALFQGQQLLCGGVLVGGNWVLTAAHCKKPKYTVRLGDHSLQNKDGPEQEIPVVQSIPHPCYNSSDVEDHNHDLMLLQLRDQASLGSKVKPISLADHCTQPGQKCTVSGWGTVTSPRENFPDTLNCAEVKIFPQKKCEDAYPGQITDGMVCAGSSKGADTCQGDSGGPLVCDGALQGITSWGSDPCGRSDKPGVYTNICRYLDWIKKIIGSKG

[4] = target: Urokinase-type plasminogen activator (Homo sapiens, UniProt P00749); assay: Inhibition of recombinant uPA (unknown origin) using Biophen CS-61(44) as substrate
Prothrombin [5] = target: T5, Prothrombin (Homo sapiens, UniProt P00734); assay: Inhibition of human plasma thrombin using Biophen CS-21(66) as substrate preincubated for 15 mins followed by substrate addition by microplate reader analysis; assay type: cell-free
Plasminogen = Plasminogen (Homo sapiens, UniProt P00747); assay: Inhibition of human plasma plasmin using Biophen CS-21(66) as substrate; assay type: cell-free
Plasminogen, sequence (P00747 97-580 limits assumed): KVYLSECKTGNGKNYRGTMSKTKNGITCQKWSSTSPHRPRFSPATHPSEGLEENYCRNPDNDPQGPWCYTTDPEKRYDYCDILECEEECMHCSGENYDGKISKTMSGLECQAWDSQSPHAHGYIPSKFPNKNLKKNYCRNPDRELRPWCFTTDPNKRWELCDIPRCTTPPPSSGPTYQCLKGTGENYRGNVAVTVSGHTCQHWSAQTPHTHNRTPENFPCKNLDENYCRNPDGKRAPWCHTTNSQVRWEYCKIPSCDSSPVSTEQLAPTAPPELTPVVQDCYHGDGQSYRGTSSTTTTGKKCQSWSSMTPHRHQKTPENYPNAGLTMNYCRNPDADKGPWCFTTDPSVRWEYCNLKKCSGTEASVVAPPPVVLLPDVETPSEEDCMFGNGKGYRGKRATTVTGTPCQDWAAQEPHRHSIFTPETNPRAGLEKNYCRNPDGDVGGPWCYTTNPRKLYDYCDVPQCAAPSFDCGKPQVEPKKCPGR
Plasminogen, sequence (P00747 581-810 limits assumed): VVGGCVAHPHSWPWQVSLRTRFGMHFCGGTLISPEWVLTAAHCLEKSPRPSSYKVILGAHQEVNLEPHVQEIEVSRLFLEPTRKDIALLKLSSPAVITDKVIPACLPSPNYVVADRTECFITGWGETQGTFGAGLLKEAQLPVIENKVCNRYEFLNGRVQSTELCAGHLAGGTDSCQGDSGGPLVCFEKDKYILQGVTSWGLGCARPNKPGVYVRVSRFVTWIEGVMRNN

Acetylcholinesterase = Acetylcholinesterase (Electrophorus electricus, UniProt O42275); assay: Inhibition of Electrophorus electricus AChE using acetylthiocholine iodide as substrate by 5-5'-Dithiobis(2 nitrobenzoic acid)-based assay
Acetylcholinesterase, sequence (O42275 whole entry): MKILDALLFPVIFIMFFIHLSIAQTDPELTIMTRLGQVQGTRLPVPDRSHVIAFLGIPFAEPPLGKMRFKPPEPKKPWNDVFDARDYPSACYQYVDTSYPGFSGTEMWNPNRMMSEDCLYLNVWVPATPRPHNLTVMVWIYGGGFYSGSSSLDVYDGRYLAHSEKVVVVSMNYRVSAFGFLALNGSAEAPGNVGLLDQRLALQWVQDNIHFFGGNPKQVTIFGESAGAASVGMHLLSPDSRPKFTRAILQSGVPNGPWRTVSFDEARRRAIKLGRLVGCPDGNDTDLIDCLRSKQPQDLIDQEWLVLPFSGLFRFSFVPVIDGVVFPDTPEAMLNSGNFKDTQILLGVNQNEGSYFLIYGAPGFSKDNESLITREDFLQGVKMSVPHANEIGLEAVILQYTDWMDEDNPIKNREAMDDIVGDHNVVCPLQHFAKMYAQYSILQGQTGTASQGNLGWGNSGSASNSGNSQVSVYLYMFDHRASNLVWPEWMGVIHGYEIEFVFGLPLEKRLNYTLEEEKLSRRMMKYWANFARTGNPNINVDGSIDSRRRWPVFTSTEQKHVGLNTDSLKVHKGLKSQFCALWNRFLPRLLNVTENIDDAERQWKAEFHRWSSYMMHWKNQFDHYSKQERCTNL

[6] = target: T6, Kallikrein-8 (Homo sapiens) (UniProt O60259); assay: Irreversible inhibition of human recombinant KLK8 expressed in Escherichia coli using Boc-Val-Pro-Arg-AMC as fluorogenic substrate at 100 times IC50 preincubated for 15 mins followed by 100 fold dilution measured for 1 hr
T6 sequence (whole entry): T4 sequence (O60259 whole entry)

Kallikrein-4 [7] = target: T1, Kallikrein-4; assay: Reversible inhibition of human recombinant KLK4 expressed in Escherichia coli using Bachem I-1120 as fluorogenic substrate at 100 times IC50 preincubated for 15 mins followed by 100 fold dilution measured for 1 hr by microplate reader analysis
Prothrombin [8] = target: T5, Prothrombin; assay: Reversible inhibition of human thrombin using Biophen CS-21(66) as substrate at 100 times IC50 preincubated for 15 mins followed by 100 fold dilution measured for 1 hr
[9] = target: T7, Kallikrein-2 (Homo sapiens) (UniProt P20151); assay: Irreversible inhibition of human recombinant KLK2 expressed in Escherichia coli using H-Pro-Phe-Arg-AMC as fluorogenic substrate at 100 times IC50 preincubated for 15 mins followed by 100 fold dilution measured for 1 hr
T7 sequence (whole entry): T2 sequence (P20151 whole entry)

[10] = target: T6, Kallikrein-8 (Homo sapiens); assay: Reversible inhibition of human recombinant KLK8 expressed in Escherichia coli using Boc-Val-Pro-Arg-AMC as fluorogenic substrate at 100 times IC50 preincubated for 15 mins followed by 100 fold dilution measured for 1 hr
Homo sapiens [11] = species on record: Homo sapiens; assay: Selectivity ratio of IC50 for human recombinant KLK2 to IC50 for human recombinant KLK4
Kallikrein-1 [12] = target: T3, Kallikrein-1; assay: Reversible inhibition of human recombinant KLK1 expressed in Escherichia coli using H-Pro-Phe-Arg-AMC as fluorogenic substrate at 100 times IC50 preincubated for 15 mins followed by 100 fold dilution measured for 1 hr
Target sequence in this assay (P06870 25-262 limits assumed): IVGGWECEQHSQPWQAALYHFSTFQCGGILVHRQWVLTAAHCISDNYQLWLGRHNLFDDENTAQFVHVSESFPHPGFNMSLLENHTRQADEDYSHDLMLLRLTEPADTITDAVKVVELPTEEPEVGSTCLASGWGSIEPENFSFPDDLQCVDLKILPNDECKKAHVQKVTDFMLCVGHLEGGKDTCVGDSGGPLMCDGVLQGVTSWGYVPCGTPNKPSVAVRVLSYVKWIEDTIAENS

[13] = Selectivity ratio of IC50 for Electrophorus electricus AChE to IC50 for human recombinant KLK4
Homo sapiens [14] = species on record: Homo sapiens; assay: Selectivity ratio of IC50 for recombinant tPA (unknown origin) to IC50 for human recombinant KLK4
Homo sapiens [15] = species on record: Homo sapiens; assay: Selectivity ratio of IC50 for human plasma thrombin to IC50 for human recombinant KLK4
Homo sapiens [16] = species on record: Homo sapiens; assay: Selectivity ratio of IC50 for human plasma plasmin to IC50 for human recombinant KLK4
Homo sapiens [17] = species on record: Homo sapiens; assay: Selectivity ratio of IC50 for recombinant uPA (unknown origin) to IC50 for human recombinant KLK4
Homo sapiens [18] = species on record: Homo sapiens; assay: Selectivity ratio of IC50 for factor 10a (unknown origin) to IC50 for human recombinant KLK4
Homo sapiens [19] = species on record: Homo sapiens; assay: Selectivity ratio of IC50 for human recombinant KLK8 to IC50 for human recombinant KLK4
[20] = target: T7, Kallikrein-2 (Homo sapiens); assay: Reversible inhibition of human recombinant KLK2 expressed in Escherichia coli using H-Pro-Phe-Arg-AMC as fluorogenic substrate at 100 times IC50 preincubated for 15 mins followed by 100 fold dilution measured for 1 hr
Homo sapiens [21] = species on record: Homo sapiens; assay: Selectivity ratio of IC50 for human recombinant KLK1 to IC50 for human recombinant KLK4
Kallikrein-1 [22] = target: T3, Kallikrein-1; assay: Irreversible inhibition of human recombinant KLK1 expressed in Escherichia coli using H-Pro-Phe-Arg-AMC as fluorogenic substrate at 100 times IC50 preincubated for 15 mins followed by 100 fold dilution measured for 1 hr
Target sequence in this assay (P06870 25-262 limits assumed): as above

[23] = target: T8, Subtilisin Carlsberg (Bacillus licheniformis) (UniProt P00780); assay: Inhibition of Bacillus licheniformis subtilisin using Suc-Ala-Ala-Pro-Phe-AMC as substrate by spectrofluorometry
T8 sequence (whole entry): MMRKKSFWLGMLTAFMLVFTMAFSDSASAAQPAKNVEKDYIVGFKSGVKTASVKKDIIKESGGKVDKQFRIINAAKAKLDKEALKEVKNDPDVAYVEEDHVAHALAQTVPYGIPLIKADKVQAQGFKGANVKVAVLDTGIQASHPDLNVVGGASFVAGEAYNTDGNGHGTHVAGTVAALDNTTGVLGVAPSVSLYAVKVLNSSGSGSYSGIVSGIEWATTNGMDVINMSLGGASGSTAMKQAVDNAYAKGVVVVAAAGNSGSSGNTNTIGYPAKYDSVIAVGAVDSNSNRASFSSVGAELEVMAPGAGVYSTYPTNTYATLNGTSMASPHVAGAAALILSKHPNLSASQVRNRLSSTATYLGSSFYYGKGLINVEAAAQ

Coagulation factor X, sequence (P00742 41-179 limits assumed): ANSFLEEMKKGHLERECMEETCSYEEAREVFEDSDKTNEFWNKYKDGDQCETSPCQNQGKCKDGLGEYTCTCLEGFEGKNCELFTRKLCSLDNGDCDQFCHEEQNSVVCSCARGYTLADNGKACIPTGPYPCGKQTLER
Coagulation factor X, sequence (P00742 235-488 limits assumed): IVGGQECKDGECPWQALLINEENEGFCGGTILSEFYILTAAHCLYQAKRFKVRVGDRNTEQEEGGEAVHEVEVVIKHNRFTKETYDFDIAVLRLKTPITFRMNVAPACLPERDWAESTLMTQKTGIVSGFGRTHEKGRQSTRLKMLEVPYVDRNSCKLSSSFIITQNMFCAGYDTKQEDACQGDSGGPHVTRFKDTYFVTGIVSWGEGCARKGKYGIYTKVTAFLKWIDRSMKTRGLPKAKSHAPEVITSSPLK

SMILES | IC50 (Coagulation factor X) | IC50 (Kallikrein-4 [1]) | IC50 (Kallikrein-2) | IC50 (Kallikrein-1 [2]) | IC50 [3] | IC50 (Kallikrein-8) | IC50 [4] | IC50 (Prothrombin [5]) | IC50 (Plasminogen) | IC50 (Acetylcholinesterase) | reversible inhibition (activity call) (Kallikrein-4 [7]) | also measured
Nc1ccc(CC(NC(=O)OCc2ccccc2)P(=O)(Oc2ccccc2)Oc2ccccc2)cc1 (stereo not given) | > 10 µM | > 10 µM | > 10 µM | > 10 µM | 32 µM | > 10 µM | 19.8 µM | 62 µM | – | – | – | –
NCCCC(NC(=O)OCc1ccccc1)P(=O)(Oc1ccccc1)Oc1ccccc1 (stereo not given) | > 250 µM | > 2.5 µM | > 2.5 µM | > 10 µM | > 2.5 µM | > 10 µM | > 250 µM | > 2.5 µM | > 250 µM | > 10 µM | – | –
N=C(N)c1ccc(C(NC(=O)OCc2ccccc2)P(=O)(Oc2ccccc2)Oc2ccccc2)cc1 (stereo not given) | > 2.5 µM | 0.041 µM | > 2.5 µM | > 2.5 µM | > 2.5 µM | 0.79 µM | – | 0.196 µM | > 2.5 µM | > 10 µM | Active | inhibition [6]: Active; inhibition (Prothrombin [8]): Active
N=C(N)NCCCC(NC(=O)OCc1ccccc1)P(=O)(Oc1ccccc1)Oc1ccccc1 (stereo not given) | > 10 µM | 0.04 µM | > 2.5 µM | 0.82 µM | – | 0.125 µM | – | 0.8 µM | – | > 10 µM | Active | inhibition (Prothrombin [8]): Active
N=C(N)Nc1ccc(CP(=O)(Oc2ccccc2)Oc2ccccc2)cc1 | > 10 µM | 0.25 µM | 2.44 µM | > 2.5 µM | > 10 µM | 1.44 µM | 1.4 µM | > 10 µM | > 10 µM | > 10 µM | Active | inhibition [9]: Active; inhibition [10]: Active
N=C(N)Nc1ccc(C(NC(=O)OCc2ccccc2)P(=O)(Oc2ccccc2)Oc2ccccc2)cc1 (stereo not given) | 3.6 µM | 0.0034 µM | 0.22 µM | 0.24 µM | 250 µM | 1.16 µM | 2.7 µM | 250 µM | 4.9 µM | > 10 µM | Active | Ratio IC50 (Homo sapiens [11]): 70; inhibition (Kallikrein-1 [12]): Active; Ratio IC50 [13]: > 300; Ratio IC50 (Homo sapiens [14]): > 300; Ratio IC50 (Homo sapiens [15]): > 300; Ratio IC50 (Homo sapiens [16]): > 300; Ratio IC50 (Homo sapiens [17]): > 300; Ratio IC50 (Homo sapiens [18]): > 300; Ratio IC50 (Homo sapiens [19]): > 300; inhibition [20]: Active; Ratio IC50 (Homo sapiens [21]): 70
N=C(N)Nc1ccc(CCP(=O)(Oc2ccccc2)Oc2ccccc2)cc1 | > 10 µM | 0.08 µM | 3.02 µM | > 2.5 µM | > 10 µM | 0.17 µM | 0.0079 µM | > 10 µM | > 10 µM | > 10 µM | Active | inhibition [9]: Active; inhibition [10]: Active
O=C(NC(c1ccc(O)cc1)P(=O)(Oc1ccccc1)Oc1ccccc1)OCc1ccccc1 (stereo not given) | > 10 µM | > 10 µM | > 2.5 µM | 0.086 µM | > 10 µM | > 10 µM | > 10 µM | > 10 µM | > 10 µM | > 10 µM | – | inhibition (Kallikrein-1 [22]): Active
CC(C)[C@H](NC(=O)OC(C)(C)C)C(=O)N1CCC[C@H]1C(=O)N[C@H](Cc1ccccc1)P(=O)(Oc1ccc(CS)cc1)Oc1ccc(CS)cc1 | – | – | – | – | – | – | – | – | – | – | – | Kapp [23]: 1 ×10⁵ /M/s
N=C(N)Nc1ccc(CC(NC(=O)OCc2ccccc2)P(=O)(Oc2ccccc2)Oc2ccccc2)cc1 (stereo not given) | > 10 µM | – | 0.53 µM | > 10 µM | – | 0.17 µM | – | – | – | > 20 µM | Active | inhibition [20]: Active; inhibition [10]: Active; inhibition (Prothrombin [8]): Active
N=C(N)c1ccc(CCC(NC(=O)OCc2ccccc2)P(=O)(Oc2ccccc2)Oc2ccccc2)cc1 (stereo not given) | – | 0.015 µM | 0.72 µM | 1.37 µM | – | 5 µM | – | – | – | > 20 µM | Active | inhibition [20]: Active
Nc1ccc(C(NC(=O)OCc2ccccc2)P(=O)(Oc2ccccc2)Oc2ccccc2)cc1 (stereo not given) | > 10 µM | > 10 µM | > 2.5 µM | > 10 µM | > 10 µM | > 10 µM | > 10 µM | > 10 µM | > 10 µM | > 10 µM | – | –
